Patent publication US12239652B2, “Composition for preventing or treating muscular diseases, or for improving muscular functions, containing ganglioside” (INDUSTRY-ACADEMIC COOPERATION FOUNDATION, YONSEI UNIVERSITY, priority 2018, dated 2025)

Key:
Wistar rats = assay: Muscle mass (soleus weight) in TNF-α-induced muscular atrophy animal model; type: in vivo; conditions: 50 mg/kg body weight once a day for 8 weeks; for Average soleus weight: right soleus, control 416.0 ± 19.57
Method: Wistar rats, aged five weeks, were acclimatized for one week and supplied with 100 ng/g of TNF-α for 2 weeks to induce muscular atrophy. The animals were randomly divided into a total of 5 groups, 8 animals per group, depending on their weight. Each of gangliosides GM3, GM1, GD1a, GT1b, and GQ1b (each 50 mg/kg body weight) as experimental groups was suspended in 0.25% carboxymethylcellulose. The suspension was administered at a given time once a day for 8 weeks. A group administered the same amounts of 0.25% carboxymethyl cellulose and TNF-α ingested by each experimental group was used as a control.
After administration of the sample for 8 weeks, the right soleus was dissected and its weight was measured with a microbalance (Mettler PE160, USA).

mTOR = mTOR Sandwich ELISA in L6 myotubes (activity for myogenic induction); type: cell-based; conditions: 12-h culture, *P<0.05
Method: The mTOR protein is known to induce the activation of proteins involved in muscle protein synthesis and an increase in muscle mass in the PI3K/Akt signaling pathway in muscle cells when phosphorylated and activated. Thus, the activity of mTOR was confirmed using an mTOR Sandwich ELISA kit (Cell Signaling Technology, Beverly, MA, USA) to determine the activity of ganglioside GM3 for myogenic induction.
L6 myoblasts (ATCC; Manassas, VA, USA) were seeded with Dulbecco's modified Eagle's media (DMEM; Hyclone) supplemented with 10% fetal bovine serum (FBS; Hyclone, Logan, UT, USA) in a 6-well plate at a density of 1×10^5 cells/well, followed by culture for 24 h. The media in the wells were replaced with DMEM (Hyclone) supplemented with 2% horse serum (HS; Hyclone), followed by culture for additional 6 days to differentiate the L6 cells into myotubes. Then, cells were treated with ganglioside GM3 (Cayman, Ann Arbor, MI, USA) at a concentration of 1 μM or 5 μM. After 12-h culture, cells were lysed by treatment with a cell lysis buffer. Proteins in the cell lysate were quantified by the Bradford method (Bio-Rad Laboratories Inc., Hercules, CA, USA) and the concentration of the cell lysate was then adjusted to 1 mg/mL. The cell lysate was plated in microwells bound with anti-mTOR antibody (50 μL/well) and cultured at 37° C. for 2 h. Cells were washed a total of 4 times with a washing buffer, treated with a detection antibody, and cultured at 37° C. for 1 h, rewashed a total of 4 times with a washing buffer, added with a horseradish peroxidase (HRP)-conjugated secondary antibody, and cultured at 37° C. for 30 min. Finally, after washing a total of 4 times with a washing buffer, TMB substrate was added to each well. After culture at 37° C. for 10 min, a stop solution was added to stop the TMB reaction. 2 min later, absorbance was measured at a wavelength of 450 nm to determine the level of mTOR in the myotubes treated with ganglioside GM3.
The procedure of Example 1 was repeated except that cells were treated with ganglioside GM1 (Cayman) at a concentration of 15 μM or 25 μM to examine the activity of the ganglioside for myogenic induction.
The procedure of Example 1 was repeated except that cells were treated with ganglioside GD1a (Cayman) at a concentration of 1 μM or 3 μM to examine the activity of the ganglioside for myogenic induction.
The procedure of Example 1 was repeated except that cells were treated with each of gangliosides GT1b and GQ1b (Cayman) at a concentration of 1 μM to examine the activity of the ganglioside for myogenic induction.

p-p70S6K = assay: Western blot of mRNA translation biomarkers in TNF-α-treated L6 myotubes: p-p70S6K; type: cell-based; conditions: 50 ng/mL TNF-α
Method: (§1) L6 myoblasts (ATCC) were seeded with DMEM (Hyclone) supplemented with 10% FBS (Hyclone) in a 6-well plate at a density of 1×10^5 cells/well, followed by culture. When the cultured cells reached a confluency of ˜80-85% per well, the media in the wells were replaced with DMEM (Hyclone) supplemented with 2% HS (Hyclone), followed by culture for additional 6 days to induce differentiation into myotubes. During culture for 6 days, the culture media were changed once every other day a total of 3 times. […] A group treated with 0.01% DMSO instead of the sample was used as a control. Cells were lysed with NP-40 buffer (ELPIS-Biotech, Daej eon, Korea) with a protease inhibitor cocktail (Sigma-Aldrich, St. Louis, MO, USA) and centrifuged at 13,000 rpm for 10 min. The cell lysate was obtained from the supernatant. The concentration of proteins in the supernatant was determined by the Bradford method (Bio-Rad Laboratories Inc.). Proteins at a certain concentration were heated for 5 min and separated by SDS-PAGE electrophoresis. The separated proteins were transferred to nitrocellulose membranes. Then, p-mTOR, mTOR, p-p70S6K, p70S6K, p-4EBP1, 4EBP1, and alpha-tubulin primary antibodies (Cell signaling technology, Beverly, MA, USA) were diluted at a ratio of 1:1000 with 2.5% bovine serum albumin (BSA; Bioworld, Dubin, OH, USA) and incubated with the proteins transferred to the nitrocellulose membranes at room temperature for 20 h. After incubation of the primary antibodies, the nitrocellulose membranes were washed 3 times with Tris-buffer saline Tween 20 (TBST) for 10 min. After washing, an anti-rabbit secondary antibody (Bethyl Laboratories, Inc., Montgomery, TA, USA) conjugated with horseradish peroxidase recognizing the primary antibodies was diluted 1:5000 with 2.5% BSA (Bioworld) and incubated with the nitrocellulose membranes at room temperature for 2 h. […]
(§2) Protein bands detected through antibody binding were developed using an ECL western blot detection reagent (Amersham, Tokyo, Japan) and visualized using a G;BOX EF imaging system (Syngene, Cambridge, UK). […]

MuRF1 = assay: RT-PCR of muscle degrading protein mRNA in TNF-α-treated L6 myotubes: MuRF1; type: cell-based; conditions: 50 ng/mL TNF-α
Method: (§3) L6 myoblasts (ATCC) were seeded with DMEM (Hyclone) supplemented with 10% FBS (Hyclone) in a 6-well plate at a density of 1×10^5 cells/well, followed by culture. When the cultured cells reached a confluency of ˜80-85% per well, the media in the wells were replaced with DMEM (Hyclone) supplemented with 2% HS (Hyclone), followed by culture for additional 6 days to induce differentiation into myotubes. During culture for 6 days, the culture media were changed once every other day a total of 3 times. The differentiation-induced cells were harvested and the cell media were replaced with DMEM supplemented with 50 ng/mL TNF-α (PeproTech) in which ganglioside GM3 (Cayman) was dissolved at a concentration of 1 μM or 5 μM. A group treated with 0.01% DMSO instead of the sample was used as a control. Total RNA was isolated from cells using TRIzol reagent (Takara, Kyoto, Japan). The isolated total RNA was quantified using NanoDrop 1000 (Thermo Fisher Scientific Inc., Waltham, MA, USA). 16 μL of the RNA was synthesized into cDNA using Reverse Transcriptase Premix (ELPIS-Biotech) and a PCR system (Gene Amp PCR System 2700; Applied Biosystems, Foster City, CA, USA) at 42° C. for 55 min and 70° C. for 15 min. 3 μL of the synthesized cDNA, the specific primers shown in Table 1 (Bioneer, Daej eon, Korea), and PCR premix (ELPIS-Biotech) were mixed and PCR was repeated 30 times at 95° C. for 30 sec, 60° C. for 1 min, and 72° C. for 1 min. After PCR amplification, cDNA was separated by electrophoresis on a 1.5% agarose gel and the cDNA bands were visualized using a G;BOX EF imaging system (Syngene).
(§4) The procedure of Example 8 was repeated except that cells were treated with ganglioside GM1 (Cayman) at a concentration of 15 μM or 25 μM to investigate the mRNA transcription and expression levels of atrogin-1 and MuRF1 as muscle degrading proteins.
(§5) The procedure of Example 8 was repeated except that cells were treated with ganglioside GD1a (Cayman) at a concentration of 1 μM or 3 μM to investigate the mRNA transcription and expression levels of atrogin-1 and MuRF1 as muscle protein degradation-related enzymes.
(§6) The procedure of Example 8 was repeated except that cells were treated with each of gangliosides GT1b and GQ1b (Cayman) at a concentration of 1 μM to investigate the mRNA transcription and expression levels of atrogin-1 and MuRF1 as muscle protein degradation-related enzymes.

p-4EBP1 = assay: Western blot of mRNA translation biomarkers in TNF-α-treated L6 myotubes: p-4EBP1; type: cell-based; conditions: 50 ng/mL TNF-α
Method: as §1, §2

atrogin-1 = assay: RT-PCR of muscle degrading protein mRNA in TNF-α-treated L6 myotubes: atrogin-1; type: cell-based; conditions: 50 ng/mL TNF-α
Method: as §3, §4, §5, §6

p-mTOR = assay: Western blot of mRNA translation biomarkers in TNF-α-treated L6 myotubes: p-mTOR; type: cell-based; conditions: 50 ng/mL TNF-α
Method: as §1, §2

Row | Compound | increase of muscle (soleus) weight compared to the control group (Wistar rats) [%] | Average soleus weight (Wistar rats) [mg] | activity of mTOR in L6 muscle cells (mTOR; 1 μM or 3 μM) | expression level of phosphorylated p-P70S6K in L6 muscle cells (p-p70S6K; 1 μM or 3 μM) | mRNA expression level of MuRF1 in L6 muscle cells (MuRF1; 1 μM or 3 μM) | expression level of phosphorylated p-4EBP1 in L6 muscle cells (p-4EBP1; 1 μM or 3 μM) | mRNA expression level of atrogin-1 in L6 muscle cells (atrogin-1; 1 μM or 3 μM) | expression level of phosphorylated p-mTOR in L6 muscle cells (p-mTOR; 1 μM or 3 μM) | activity of mTOR in L6 muscle cells (mTOR; 15 μM or 25 μM) | expression level of phosphorylated p-P70S6K in L6 muscle cells (p-p70S6K; 15 μM or 25 μM) | mRNA expression level of MuRF1 in L6 muscle cells (MuRF1; 15 μM or 25 μM) | expression level of phosphorylated p-4EBP1 in L6 muscle cells (p-4EBP1; 15 μM or 25 μM) | mRNA expression level of atrogin-1 in L6 muscle cells (atrogin-1; 15 μM or 25 μM) | expression level of phosphorylated p-mTOR in L6 muscle cells (p-mTOR; 15 μM or 25 μM) | activity of mTOR in L6 muscle cells (mTOR; 1 μM) | mRNA expression level of MuRF1 in L6 muscle cells (MuRF1; 1 μM) | mRNA expression level of atrogin-1 in L6 muscle cells (atrogin-1; 1 μM)
1 | CCCCCCCCCCCCC/C=C/[C@@H](O)[C@H](CO[C@@H]1OC(CO)[C@@H](O[C@@H]2OC(CO)[C@H](O[C@H]3OC(CO)[C@H](O)C(O[C@@H]4OC(CO)[C@H](O[C@]5(C(=O)O)CC(O)[C@@H](NC(C)=O)C([C@@H](O)[C@H](O)CO)O5)C(O)C4O)C3NC(C)=O)C(O[C@]3(C(=O)O)CC(O)[C@@H](NC(C)=O)C([C@@H](O)[C@H](O)CO)O3)C2O)C(O)C1O)NC(=O)CCCCCCCCCCCCCCCCC (some centres unmarked) [Ganglioside GD1a, ganglioside GD1a] | 17.79 | 490.0 ± 22.8 | significantly increased | increased | reduced | increased | reduced | increased | – | – | – | – | – | – | – | – | –
2 | CCCCCCCCCCCCC/C=C/[C@@H](O)[C@H](CO[C@@H]1O[C@H](CO)[C@@H](O[C@@H]2O[C@H](CO)[C@H](O[C@@H]3O[C@H](CO)[C@H](O)[C@H](O[C@@H]4O[C@H](CO)[C@H](O)[C@H](O)[C@H]4O)[C@H]3NC(C)=O)[C@H](O[C@]3(C(=O)O)C[C@H](O)[C@@H](NC(C)=O)[C@H]([C@H](O)[C@H](O)CO)O3)[C@H]2O)[C@H](O)[C@H]1O)NC(=O)CCCCCCCCCCCCCCCCC [Ganglioside GM1, ganglioside GM1] | 22.11 | 508.0 ± 19.8 | – | – | – | – | – | – | significantly increased | increased | reduced | increased | reduced | increased | – | – | –
3 | CCCCCCCCCCCCC/C=C/[C@@H](O)[C@H](CO[C@@H]1OC(CO)[C@@H](O[C@@H]2OC(CO)[C@H](O[C@H]3OC(CO)[C@H](O)C(O[C@@H]4OC(CO)[C@@H](O)C(O[C@]5(C(=O)O)CC(O)[C@@H](NC(C)=O)C([C@@H](O)[C@H](CO)O[C@]6(C(=O)O)CC(O)[C@@H](NC(C)=O)C([C@@H](O)[C@H](O)CO)O6)O5)C4O)C3NC(C)=O)C(O[C@]3(C(=O)O)CC(O)[C@@H](NC(C)=O)C([C@@H](O)[C@H](CO)O[C@]4(C(=O)O)CC(O)[C@@H](NC(C)=O)C([C@@H](O)[C@H](O)CO)O4)O3)C2O)C(O)C1O)NC(=O)CCCCCCCCCCCCCCCCC (some centres unmarked) [Ganglioside GQ1b, ganglioside GQ1b] | 16.37 | 484.1 ± 25.4 | – | – | – | – | – | – | – | – | – | – | – | – | significantly increased | reduced | reduced
4 | CCCCCCCCCCCCC/C=C/[C@@H](O)[C@H](CO[C@@H]1OC(CO)[C@@H](O[C@@H]2OC(CO)[C@H](O[C@H]3OC(CO)[C@H](O)C(OC4OC(CO)C(O)[C@H](O[C@]5(C(=O)O)CC(O)[C@@H](NC(C)=O)C([C@@H](O)[C@H](O)CO)O5)C4CO)C3NC(C)=O)C(O[C@]3(C(=O)O)CC(O)[C@@H](NC(C)=O)C([C@@H](O)[C@H](CO)O[C@]4(C(=O)O)CC(O)[C@@H](NC(C)=O)C([C@@H](O)[C@H](O)CO)O4)O3)C2O)C(O)C1O)NC(=O)CCCCCCCCCCCCCCCCC (some centres unmarked) [Ganglioside GT1b, ganglioside GT1b] | 14.42 | 476.0 ± 24.1 | – | – | – | – | – | – | – | – | – | – | – | – | significantly increased | reduced | reduced
